Experiment: Release of nicotine and vanillin from devices in artificial saliva
Assay type: physicochemical
Settings: device with 50 w-% PVA / 50 w-% PLA, ca. 20 mg
Description: Three devices of each polymer matrix formulation were chosen for drug release experiments. Prior to the experiments, the dimensions and weight of the capsules were recorded. In the drug release experiments, the capsules were immersed in 2 mL of artificial saliva, which itself consists of a solution of 16.8 mM Na2HPO4, 1.4 mM KH2PO4, and 137 mM NaCl salts dissolved in purified water at pH 6.75. The solution was kept at 37° C. and under constant stirring. Once a day, 150 μL of solution was withdrawn from each sample to measure the amount of released drug in a high-performance liquid chromatography apparatus (HPLC). An equal amount of solution was added after each withdrawal to keep the total volume constant. The experiment was ceased between 35 and 42 days, due to devices turning red resulting from paracetamol degradation, or when all the drug was deemed to be released.
The release of nicotine and vanillin was measured similarly as in Examples 1 and 2.

Compound: CN1CCCC1c1cccnc1 (stereo not drawn) [Nicotine, nicotine]
- cumulative release from device (day 2): 6 µg
- cumulative release from device (day 14): ca. 7 μg
- loading degree in device: 0.04 w-%

Compound: COc1cc(C=O)ccc1O [Vanillin, vanillin]
- cumulative release from device (day 4): ca. 50 μg
- cumulative release from device (day 7): 65 µg
- loading degree in device: 0.32 w-%
